From US11999727B2 (Tango Therapeutics, Inc., priority 2020, dated 2024) come the findings set out here.

In experiment [1] the test system is HAP1 MTAP-deleted cell line. The experiment is described as follows: SDMA in-cell western assay, HAP1 MTAP-deleted. The experiment is classed as cell-based. The note with it: for IC50: HAP1 MTAP-deleted, read-out: HAP 1 MTAP deleted IC50; for MTAP intact/deleted ratio: IC50 ratio HAP1 MTAP-intact / HAP1 MTAP-deleted. The gist of the method:
(§1)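 Compounds were tested in HAP1 cells differing only in MTAP status (endogenous expression versus null). Cellular SDMA levels were then measured by in-cell western, giving an IC50 in each background.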

For experiment [2], the system named is HAP1 MTAP-deleted cell line. Kind of experiment: Viability assay, MTAP-deleted cell line. Format: cell-based. Conditions: HAP1 MTAP-deleted cell line, read-out: HAP1 MTAP deleted viability. The text has this: Table 1 additionally indicates IC50 values in a viability assay for the MTAP-deleted cell line (column 10), indicating the effect of treatment with compound on cell survival.

In experiment [3] the test system is HAP1 MTAP-intact cell line. Kind of experiment: SDMA in-cell western assay, HAP1 MTAP-intact. The experiment is classed as cell-based. Conditions: HAP1 MTAP-intact, read-out: MTAP HAP1 intact IC50. The gist of the method:
as §1

Experiment [4] has as its target T1, PRMT5 (Homo sapiens, UniProt O14744).
T1 construct: purchased Viva (custom protein)
Kind of experiment: PRMT5 biochemical IC50 assay with no cofactor. The note with it: PRMT5, no cofactor; read-out: No Cofactor/ rel IC50. The text has this:
Table 1 indicates IC50 values (μM) against PRMT5 for exemplary compounds in the presence of SAM as cofactor, with no cofactor, and with MTA as cofactor, respectively (columns 4-6). […] Ki values can be calculated from the IC50 values as described in the Examples section. As detailed in the Examples section, for the assay performed in the presence of SAM, IC50=Ki×1.5 (Ki=IC50/1.5).

Experiment [5] deals with T1, PRMT5. The experiment is described as follows: PRMT5 biochemical IC50 assay with MTA as cofactor. The note with it: PRMT5, MTA as cofactor; read-out: MTA IC50.
Experiment [6] concerns the target T1, PRMT5. Kind of experiment: PRMT5 biochemical IC50 assay with SAM as cofactor. The note with it: PRMT5, SAM as cofactor; read-out: SAM IC50.
[7] abbreviates: Homo sapiens, HAP1, SDMA in-cell western.

Where two headings read alike, the source gives them in different places.

T1 sequence (O14744 whole entry): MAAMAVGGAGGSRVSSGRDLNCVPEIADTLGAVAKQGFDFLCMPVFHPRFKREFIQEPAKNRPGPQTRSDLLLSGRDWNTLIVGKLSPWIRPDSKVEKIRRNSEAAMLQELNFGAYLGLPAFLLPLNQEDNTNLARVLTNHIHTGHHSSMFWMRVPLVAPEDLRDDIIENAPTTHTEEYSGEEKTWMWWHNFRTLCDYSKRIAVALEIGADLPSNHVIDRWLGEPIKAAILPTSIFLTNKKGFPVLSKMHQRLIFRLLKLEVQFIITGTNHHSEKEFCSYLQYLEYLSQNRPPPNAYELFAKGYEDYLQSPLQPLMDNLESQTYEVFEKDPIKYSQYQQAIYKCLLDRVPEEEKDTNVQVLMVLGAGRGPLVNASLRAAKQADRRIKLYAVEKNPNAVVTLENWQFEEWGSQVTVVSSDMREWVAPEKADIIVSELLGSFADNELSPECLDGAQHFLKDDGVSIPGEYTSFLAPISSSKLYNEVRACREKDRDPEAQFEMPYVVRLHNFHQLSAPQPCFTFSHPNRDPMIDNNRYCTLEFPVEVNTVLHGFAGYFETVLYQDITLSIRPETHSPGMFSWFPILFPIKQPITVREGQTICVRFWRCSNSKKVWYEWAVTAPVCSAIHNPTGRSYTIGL
T1 sequence (Q9BQA1 whole entry partner): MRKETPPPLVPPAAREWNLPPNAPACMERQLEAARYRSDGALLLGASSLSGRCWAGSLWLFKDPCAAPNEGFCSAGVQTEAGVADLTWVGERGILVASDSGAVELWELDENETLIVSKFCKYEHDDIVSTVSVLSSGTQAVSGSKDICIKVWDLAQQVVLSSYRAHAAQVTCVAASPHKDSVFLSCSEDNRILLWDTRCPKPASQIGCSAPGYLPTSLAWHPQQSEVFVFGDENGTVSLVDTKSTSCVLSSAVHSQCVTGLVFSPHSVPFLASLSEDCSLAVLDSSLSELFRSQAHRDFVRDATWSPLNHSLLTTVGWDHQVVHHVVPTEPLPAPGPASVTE

`Cc1cc(NC(=O)C(=O)N2C[C@H](C)[C@H](OC(F)(F)F)C[C@H]2c2ccc(F)cc2)cnc1N` (single isomer, unassigned) [Compound 1323]: the IC50 in experiment [1] (setting [7]) is greater than 1000 nM; in experiment [2] (Homo sapiens, HAP1, viability), greater than 10000 nM; in experiment [3] (setting [7]), greater than 1000 nM; in experiment [4], greater than 500 nM; in experiment [5] it was greater than 500 nM; in experiment [6], greater than 500 nM.

Regarding `Cc1cc(NC(=O)C(=O)N2C[C@@H](C)[C@H](OC(C)C)C[C@@H]2c2ccccc2)cnc1N` (single isomer, unassigned) [Compound 1327], the IC50 is greater than 1000 nM in experiment [1] (setting [7]); 1000 to 10000 nM in experiment [2] (Homo sapiens, HAP1, viability); greater than 1000 nM in experiment [3] (setting [7]); greater than 500 nM in experiment [4]; greater than 500 nM in experiment [5]; greater than 500 nM in experiment [6].

In the case of `Cc1cc(NC(=O)C(=O)N2C[C@@H](C)CC[C@@H]2c2ccc(N3CCN(C)CC3)cc2)cnc1N` (single isomer, unassigned) [Compound 1328], the IC50 in experiment [1] (setting [7]) is less than 100 nM; in experiment [2] (Homo sapiens, HAP1, viability), less than 1000 nM; in experiment [3] (setting [7]) it was less than 100 nM; in experiment [4], less than 50 nM; in experiment [5], less than 50 nM; in experiment [6] it was 50 to 500 nM. Besides, the “MTAP intact/deleted ratio” value in experiment [1] (SDMA in-cell western) was “B (an IC50 ratio greater than or equal to 3 fold but lower than 10 fold)”.

Consider `C[C@H]1CC[C@H](c2ccc3sc(CCN(C)C)nc3c2)N(C(=O)C(=O)Nc2cnc(N)c(C3CC3)c2)C1` (single isomer, unassigned) [Compound 1331], for which the IC50 was 100 to 1000 nM in experiment [1] (setting [7]); 1000 to 10000 nM in experiment [2] (Homo sapiens, HAP1, viability); greater than 1000 nM in experiment [3] (setting [7]); greater than 500 nM in experiment [4]; greater than 500 nM in experiment [5]; greater than 500 nM in experiment [6]. For the same compound, the “MTAP intact/deleted ratio” value in experiment [1] (SDMA in-cell western) is on record as “A (an IC50 ratio greater than or equal to 10 fold)”.

For the compound `COCCc1nc2cc([C@@H]3CC[C@@H](C)CN3C(=O)C(=O)Nc3cnc(N)c(C4CC4)c3)ccc2s1` (single isomer, unassigned) [Compound 1332], the IC50 in experiment [1] (setting [7]) was less than 100 nM; in experiment [2] (Homo sapiens, HAP1, viability), less than 1000 nM; in experiment [3] (setting [7]), 100 to 1000 nM; in experiment [4] it was 50 to 500 nM; in experiment [5], less than 50 nM; in experiment [6], 50 to 500 nM.

For `C[C@@H]1CC[C@@H](c2ccc3cncn3c2)N(C(=O)C(=O)Nc2cnc(N)c(C3CC3)c2)C1` (single isomer, unassigned) [Compound 1336, N-(6-amino-5-cyclopropylpyridin-3-yl)-2-(2-(imidazo[1,5-a]pyridin-6-yl)-5-methylpiperidin-1-yl)-2-oxoacetamide], the IC50 in experiment [1] (setting [7]) was 100 to 1000 nM; in experiment [2] (Homo sapiens, HAP1, viability), 1000 to 10000 nM; in experiment [3] (setting [7]), greater than 1000 nM; in experiment [4], greater than 500 nM; in experiment [5], greater than 500 nM; in experiment [6], greater than 500 nM.

As for `C[C@H]1CC[C@H](c2ccc3sc(C4CCN(C)CC4)nc3c2)N(C(=O)C(=O)Nc2cnc(OC(F)(F)F)c(C(N)=O)c2)C1` (single isomer, unassigned) [Compound 1337], the IC50 in experiment [1] (setting [7]) was less than 100 nM; in experiment [2] (Homo sapiens, HAP1, viability), less than 1000 nM; in experiment [3] (setting [7]), less than 100 nM; in experiment [4] it was less than 50 nM; in experiment [5] it was less than 50 nM; in experiment [6], less than 50 nM. For the same compound, the “MTAP intact/deleted ratio” value in experiment [1] (SDMA in-cell western) was “B (an IC50 ratio greater than or equal to 3 fold but lower than 10 fold)”.

In the case of `CCc1cc(NC(=O)C(=O)N2C[C@@H](C)CC[C@@H]2c2ccc(N3CCOC4(CN(C)C4)C3)cc2)cnc1N` (single isomer, unassigned) [Compound 1339], the IC50 in experiment [1] (setting [7]) was less than 100 nM; in experiment [2] (Homo sapiens, HAP1, viability), less than 1000 nM; in experiment [3] (setting [7]), 100 to 1000 nM; in experiment [4], less than 50 nM; in experiment [5] it was less than 50 nM; in experiment [6] it was 50 to 500 nM. Besides, the “MTAP intact/deleted ratio” value in experiment [1] (SDMA in-cell western) is listed as “A (an IC50 ratio greater than or equal to 10 fold)”.

As to `COc1ncc(NC(=O)C(=O)N2C[C@@H](C)[C@@H](OC)C[C@@H]2c2ccc3scnc3c2)cc1C(N)=O` (single isomer, unassigned) [Compound 1344], the IC50 is 100 to 1000 nM in experiment [1] (setting [7]); 1000 to 10000 nM in experiment [2] (Homo sapiens, HAP1, viability); greater than 1000 nM in experiment [3] (setting [7]); greater than 500 nM in experiment [4]; greater than 500 nM in experiment [5]; greater than 500 nM in experiment [6].

Consider `Cc1cc(NC(=O)C(=O)N2C[C@@H](C)CC[C@@H]2c2cc(F)c3[nH]ncc3c2)cnc1N` (single isomer, unassigned) [Compound 1350], for which the IC50 was less than 100 nM in experiment [1] (setting [7]); less than 1000 nM in experiment [2] (Homo sapiens, HAP1, viability); 100 to 1000 nM in experiment [3] (setting [7]); less than 50 nM in experiment [4]; less than 50 nM in experiment [5]; 50 to 500 nM in experiment [6]. Further, the “MTAP intact/deleted ratio” value in experiment [1] (SDMA in-cell western) is on record as “A (an IC50 ratio greater than or equal to 10 fold)”.

`Cc1cc(NC(=O)C(=O)N2C[C@H](C)[C@H](OC(C)C)C[C@H]2c2ccccc2)cnc1N` (single isomer, unassigned) [Compound 1351]: the IC50 was less than 100 nM in experiment [1] (setting [7]); less than 1000 nM in experiment [2] (Homo sapiens, HAP1, viability); less than 100 nM in experiment [3] (setting [7]); less than 50 nM in experiment [4]; less than 50 nM in experiment [5]; less than 50 nM in experiment [6]. For the same compound, the “MTAP intact/deleted ratio” value in experiment [1] (SDMA in-cell western) is “B (an IC50 ratio greater than or equal to 3 fold but lower than 10 fold)”.

For `CCc1cc(NC(=O)C(=O)N2C[C@@H](C)CC[C@@H]2c2cccc([C@H]3CCCN(C)C3)c2)cnc1N` (single isomer, unassigned) [Compound 1353], in experiment [1] (SDMA in-cell western), the “MTAP intact/deleted ratio” value is listed as “A (an IC50 ratio greater than or equal to 10 fold)”. The IC50 in experiment [1] (SDMA in-cell western) was less than 100 nM; in experiment [2] (viability), less than 1000 nM; in experiment [3] (SDMA in-cell western), 100 to 1000 nM; in experiment [4], less than 50 nM; in experiment [5], less than 50 nM; in experiment [6] it was 50 to 500 nM.

As for `CCc1cc(NC(=O)C(=O)N2C[C@H](C)C(F)(F)C[C@H]2c2ccc3[nH]ncc3c2)cnc1N` (single isomer, unassigned) [Compound 1357, N-(6-amino-5-ethylpyridin-3-yl)-2-(4,4-difluoro-2-(1H-indazol-5-yl)-5-methylpiperidin-1-yl)-2-oxoacetamide], the IC50 was less than 100 nM in experiment [1] (setting [7]); less than 1000 nM in experiment [2] (Homo sapiens, HAP1, viability); less than 100 nM in experiment [3] (setting [7]); 50 to 500 nM in experiment [4]; less than 50 nM in experiment [5]; 50 to 500 nM in experiment [6]. Further, the “MTAP intact/deleted ratio” value in experiment [1] (SDMA in-cell western) is listed as “A (an IC50 ratio greater than or equal to 10 fold)”.

Take `Cc1cc(NC(=O)C(=O)N2C[C@H](C)CC[C@H]2c2ccc(CCN(C)C)cc2)cnc1N` (single isomer, unassigned) [Compound 1358]: the IC50 was less than 100 nM in experiment [1] (setting [7]); less than 1000 nM in experiment [2] (Homo sapiens, HAP1, viability); less than 100 nM in experiment [3] (setting [7]); less than 50 nM in experiment [4]; less than 50 nM in experiment [5]; 50 to 500 nM in experiment [6]. For the same compound, the “MTAP intact/deleted ratio” value in experiment [1] (SDMA in-cell western) is “A (an IC50 ratio greater than or equal to 10 fold)”.

Regarding `CCc1cc(NC(=O)C(=O)N2C[C@@H](C)CC[C@@H]2c2ccc(N3CCN(CC)CC3)cc2)cnc1N` (single isomer, unassigned) [Compound 1360], the IC50 in experiment [1] (setting [7]) is greater than 1000 nM; in experiment [2] (Homo sapiens, HAP1, viability), greater than 10000 nM; in experiment [3] (setting [7]), greater than 1000 nM; in experiment [4] it was greater than 500 nM; in experiment [5] it was greater than 500 nM; in experiment [6] it was greater than 500 nM.
